The numbers were not newly measured in patent publication US8163169B2, “Hydroconversion processes employing multi-metallic catalysts and method for making thereof” (Chevron U.S.A. Inc., priority 2007, dated 2012), which cites them from elsewhere.

In this data set the test system is rats. Particulars: single oral dose to rats.

Usually LD50 stands for the dose expected to kill half of the subjects tested. As to `O=CC(=O)O` [glyoxylic], the LD50 is recorded as 3000 mg/kg.
